According to BigSolDB 2.1:

COc1cc([N+](=O)[O-])ccc1N
solubility (mole fraction)
Conditions	278.15 K	283.15 K	288.15 K	293.15 K	298.15 K	303.15 K	308.15 K	313.15 K	318.15 K	323.15 K
in isopropanol	0.00186	0.00221	0.00265	0.00322	0.00396	0.00492	0.00595	0.00719	0.00855	0.0101
in water	4.03e-06	5.68e-06	7.36e-06	9.49e-06	1.27e-05	1.74e-05	2.36e-05	3.15e-05	4.23e-05	5.49e-05
